Source: paper PMC6272893, “NO-Releasing Enmein-Type Diterpenoid Derivatives with Selective Antiproliferative Activity and Effects on Apoptosis-Related Proteins” (Molecules, 2016)
Read-outs that look alike come from different tables or passages of the source. Each block holds one compound with its values, some of them ahead of it.

Experiments:
Bel-7402 cells [1] = assay: MTT antiproliferative assay, Bel-7402; type: cell-based, human; settings: for IC50: Homo sapiens, Bel-7402, MTT, 72 h, mean ± S.D. of three experiments
Procedure: [The source words this procedure for another cell line and reports this cell line under the same test.] (§1) Cytotoxicity assay in vitro was employed by the MTT assay following the methodology described previously, which was performed in flat-bottomed 96-well plates. In short, exponentially growing MGC-803 cells at the log phase were added to each well at a density of 5 × 10^3 per well, then treated with serial dilutions of the compounds in three replicates at various concentrations (0.039–40 µg/mL). After 72 h, 20 µL of MTT solution (5 mg/mL) per well was added to each cultured medium. Then, DMSO was added to each well (150 µL/well). After 10 min at room temperature, the absorbance (OD) was read on a microplate reader at the wavelength of 490 nm (BIO-RAD Instruments Inc. 550, Hercules, CA, USA). In these experiments, taxol was used as the positive reference with the concentration of 10 µg/mL.

L-02 normal liver cells = assay: MTT antiproliferative assay, L-02; type: cell-based; settings: for IC50: 72 h, read-out: antiproliferative activity IC50, L-02; for SI (selectivity index): selectivity between tumor and normal liver cells
Procedure: [The source words this procedure for another cell line and reports this cell line under the same test.] as §1

K562 cells = assay: MTT antiproliferative assay, K562; type: cell-based, human; settings: for IC50: Homo sapiens, K562, MTT, 72 h, mean ± S.D. of three experiments
Procedure: [The source words this procedure for another cell line and reports this cell line under the same test.] as §1

MGC-803 cells = assay: MTT antiproliferative assay, MGC-803; type: cell-based, human; settings: for IC50: Homo sapiens, MGC-803, MTT, 72 h, mean ± S.D. of three experiments
Procedure: as §1

CaEs-17 cells = assay: MTT antiproliferative assay, CaEs-17; type: cell-based, human; settings: for IC50: Homo sapiens, CaEs17, MTT, 72 h, mean ± S.D. of three experiments
Procedure: [The source words this procedure for another cell line and reports this cell line under the same test.] as §1

Bel-7402 cells [2] = assay: Cell cycle study by PI flow cytometry; type: cell-based, human; settings: for G2 phase cells: control 20.72%; for cells at the S phase: control 34.65%
Procedure: Progression through the cell cycle was assessed by flow cytometry DNA determination with PI. Bel-7402 cells were plated in 6-well plates (5.0 × 10^3 cells/well) and incubated at 37 °C for 24 h. Exponentially growing cells were then incubated with tested compound at a certain concentration in triplicate. Untreated cells (control) or cells treated with the solvent (DMSO) of the compound were included. After 48 h treatment, cells were centrifuged and fixed in 70% ethanol at 4 °C overnight and subsequently resuspended in PBS containing 100 μL RNase A and 400 μL PI. Cellular DNA content, for cell cycle distribution analysis, was measured using a flow cytometer (FACS Calibur Becton-Dickinson, Franklin Lake, NJ, USA).
Figure 4 Influence of the cell cycle arrest of S phase by 10f in Bel-7402 cells: Bel-7402 cells were incubated with the indicated concentrations of 10f for 24 h and the cells were stained with propidium iodide (PI). Cellular DNA content, for cell cycle distribution analysis, was measured using a flow cytometer. The diagrams show the distribution of the cells according to their DNA content. The inserts give the percentages of cells in different cell cycle phases. TEXT PRINTED IN THE PICTURE: Control group: G1: 44.64%; S: 34.65%; G2: 20.72% | no label printed: G1: 42.41% (1 μM); S: 40.27% (1 μM); G2: 17.32% (1 μM); G1: 43.10% (1.5 μM); S: 48.11% (1.5 μM); G2: 8.79% (1.5 μM); G1: 40.63% (2 μM); S: 53.34% (2 μM); G2: 6.02% (2 μM) DOUBTS OF THE COPYIST ABOUT THIS PICTURE: The picture prints no label for the treated substance, only the concentrations 1 μM, 1.5 μM and 2 μM, so the substance is left blank and the concentrations are given as conditions. / Control group is an untreated reference, not a substance. It is listed because the picture prints its values under that label.

Bel-7402 cells [3] = assay: Annexin V-FITC/PI apoptosis assay; type: cell-based, human; settings: 24 h, control 8.27%
Procedure: The Bel-7402 cells were seeded in 6-well plates to grow overnight, and then treated with or without 10f at indicated concentrations in triplicate for 24 h. Cells were then washed twice in PBS and resuspended in annexin V binding buffer. Annexin V-FITC was then added and the mixture was incubated for 15 min under dark conditions at 25 °C. PI was added just prior to acquisition. Apoptosis was analyzed using annexin V and PI double-staining by flow cytometry according to the manufacturer’s instructions in order to detect apoptotic cells.
Figure 5 Apoptosis in Bel-7402 cells by treatment with 10f: Bel-7402 cells were incubated with different concentrations of 10f for 24 h and the cells were stained with annexin V-FITC and PI, followed by flow cytometry analysis. TEXT PRINTED IN THE PICTURE: Control: 2.67%; 2.37%; 89.06%; 5.90% | no label printed: 2.07% (1.0 μM); 4.15% (1.0 μM); 74.53% (1.0 μM); 19.26% (1.0 μM); 5.69% (1.5 μM); 15.20% (1.5 μM); 55.99% (1.5 μM); 23.12% (1.5 μM); 3.33% (2.0 μM); 26.65% (2.0 μM); 37.87% (2.0 μM); 32.15% (2.0 μM) DOUBTS OF THE COPYIST ABOUT THIS PICTURE: The picture prints no compound label for the treated plots, only the concentrations 1.0 μM, 1.5 μM and 2.0 μM, so the substance is left empty. / The picture prints no measure or quadrant name for the percentages. Each plot's values are given in the order upper left, upper right, lower left, lower right.

Bel-7402 cells [4] = assay: Mitochondrial membrane potential assay (JC-1); type: cell-based, human; settings: 48 h, control 3.28%
Procedure: […] The percentage of cells with healthy or collapsed mitochondrial membrane potentials was monitored by flow cytometry analysis.
Figure 6 Effect of 10f on the mitochondrial membrane potentials of Bel-7402 cells: Bel-7402 cells were incubated with the indicated concentrations of 10f for 48 h prior to staining with JC-1. […] In each plot the first value is in the upper right quadrant and the second in the lower right quadrant.

[5] = system: apoptosis-related proteins in Bel-7402 cells; assay: Western blot of apoptosis-related proteins; type: cell-based, human; settings: 10f 1.0, 1.5 and 2.0 μM, 48 h, concentration-dependent
Procedure: Bel-7402 cells were incubated in triplicate with different doses (1.0, 1.5 and 2.0 μM) of 10f for 48 h. After the protein concentrations were determined, individual cell lysates were separated by sodium dodecyl sulfate polyacrylamide gel electrophoresis (10% gel, SDS-PAGE) and transferred onto nitrocellulose membranes. After being blocked with 5% fat-free milk, the target proteins in the membranes were probed with monoclonal anti-Bax (KGA714), anti-Bcl2 (KGA715), anti-caspase 3 (KGA717), anti-caspase 9 (KGA720), anti-cyto C (KGA723), and anti-β-actin antibodies (KGA731, KeyGEN Biotech, Nanjing, China), respectively. The relative levels of each signaling event to control β-actin were determined by densimetric scanning.
Figure 7 Western blotting of 10f on the expression of apoptosis-related proteins in Bel-7402 cells. 1: negative control; 2: 2.0 μM; 3: 1.5 μM; 4: 1.0 μM.

[6] = MTT, mean ± S.D. of three experiments

SMILES: C=C1C(=O)[C@]23[C@H](O)[C@H]1CC[C@H]2[C@@]12CO[C@]3(O)[C@@H](O)[C@@H]1C(C)(C)CC[C@@H]2O [Compound 1, oridonin, reference compound]
IC50 (Bel-7402 cells [1]): 7.48 ± 0.32 µM
IC50 (L-02 normal liver cells; [6]): 18.3 ± 0.8 µM
SI (selectivity index) (L-02 normal liver cells): about 2.4
IC50 (K562 cells): 4.76 ± 0.32 µM
IC50 (MGC-803 cells): 5.69 ± 0.39 µM
IC50 (CaEs-17 cells): 11 ± 1 µM

SMILES: C=C1C(=O)C23C(=O)OC4CCC(C)(C)C5C(=O)OCC45C2CCC1C3OC(=O)c1ccccc1C(=O)OCCOc1no[n+]([O-])c1S(=O)(=O)c1ccccc1 (stereo not drawn) [Compound 10c]
IC50 (Bel-7402 cells [1]): 1.01 ± 0.04 µM
IC50 (L-02 normal liver cells; [6]): 31.2 ± 1.2 µM
IC50 (K562 cells): 1.97 ± 0.18 µM
IC50 (MGC-803 cells): 1.6 ± 0.15 µM
IC50 (CaEs-17 cells): 4.02 ± 0.14 µM

SMILES: C=C1C(=O)C23C(=O)OC4CCC(C)(C)C5C(=O)OCC45C2CCC1C3O (stereo not drawn) [Compound 9]
IC50 (Bel-7402 cells [1]): 16 ± 1.1 µM
IC50 (L-02 normal liver cells): 26.4 ± 1.3 µM
IC50 (K562 cells): 2.64 ± 0.19 µM
IC50 (MGC-803 cells): 5.84 ± 0.57 µM
IC50 (CaEs-17 cells): 23.7 ± 1.8 µM

More lines, in order of falling IC50 (Bel-7402 cells [1]), values ahead:

IC50 (Bel-7402 cells [1]): 1.89 ± 0.09 µM
IC50 (K562 cells): 0.41 ± 0.02 µM
IC50 (MGC-803 cells): 4.65 ± 0.29 µM
SMILES: CC(=O)O[C@H]1C(=O)[C@@]2(C)[C@H]([C@H](OC(=O)c3ccccc3)[C@]3(O)C[C@H](OC(=O)[C@H](O)[C@@H](NC(=O)c4ccccc4)c4ccccc4)C(C)=C1C3(C)C)[C@]1(OC(C)=O)CO[C@@H]1C[C@@H]2O [Taxol, reference compound]
IC50 (L-02 normal liver cells; [6]): 3.73 ± 0.17 µM
IC50 (CaEs-17 cells): 0.43 ± 0.03 µM

IC50 (Bel-7402 cells [1]): 1.12 ± 0.09 µM
IC50 (K562 cells): 2.02 ± 0.17 µM
IC50 (MGC-803 cells): 1.91 ± 0.09 µM
SMILES: C=C1C(=O)C23C(=O)OC4CCC(C)(C)C5C(=O)OCC45C2CCC1C3OC(=O)CCCC(=O)OCCCOc1no[n+]([O-])c1S(=O)(=O)c1ccccc1 (stereo not drawn) [Compound 10e]
IC50 (L-02 normal liver cells; [6]): 29.3 ± 0.9 µM
IC50 (CaEs-17 cells): 4.04 ± 0.23 µM

IC50 (Bel-7402 cells [1]): 0.81 ± 0.06 µM
IC50 (K562 cells): 1.73 ± 0.04 µM
IC50 (MGC-803 cells): 1.18 ± 0.1 µM
melting point: 151 to 154 °C
SMILES: C=C1C(=O)C23C(=O)OC4CCC(C)(C)C5C(=O)OCC45C2CCC1C3OC(=O)c1ccccc1C(=O)OCCCOc1no[n+]([O-])c1S(=O)(=O)c1ccccc1 (stereo not drawn) [Compound 10f]
fold stronger than 1, Bel-7402 (Bel-7402 cells [1]; IC50 compared with 1): 8.2 fold
fold stronger than 9, Bel-7402 (Bel-7402 cells [1]; IC50 compared with 9): 18.7 fold
IC50 (L-02 normal liver cells; [6]): 29.9 ± 1.4 µM
SI (selectivity index) (L-02 normal liver cells): 36.9
fold stronger than 1, K562 (K562 cells; IC50 compared with 1): 1.8 fold
fold stronger than 1, MGC-803 (MGC-803 cells; IC50 compared with 1): 3.8 fold
fold stronger than 9, MGC-803 (MGC-803 cells; IC50 compared with 9): 3.9 fold
IC50 (CaEs-17 cells): 3.77 ± 0.3 µM
fold stronger than 1, CaEs-17 (CaEs-17 cells; IC50 compared with 1): 1.9 fold
fold stronger than 9, CaEs-17 (CaEs-17 cells; IC50 compared with 9): 5.3 fold
G2 phase cells (Bel-7402 cells [2]; 10f 1.0 μM): 17.32%
cells at the S phase (Bel-7402 cells [2]; 10f 1.0 μM): 40.27%
G2 phase cells (Bel-7402 cells [2]; 10f 1.5 μM): 8.79%
cells at the S phase (Bel-7402 cells [2]; 10f 1.5 μM): 48.11%
G2 phase cells (Bel-7402 cells [2]; 10f 2.0 μM): 6.02%
cells at the S phase (Bel-7402 cells [2]; 10f 2.0 μM): 53.34%
apoptotic cell rates (early and late) (Bel-7402 cells [3]; 10f 1.0 μM): 23.41%
apoptotic cell rates (early and late) (Bel-7402 cells [3]; 10f 1.5 μM): 38.32%
apoptotic cell rates (early and late) (Bel-7402 cells [3]; 10f 2.0 μM): 58.80%
cells with collapsed mitochondrial membrane potentials (Bel-7402 cells [4]; 10f 0.5 μM): 17.76%
cells with collapsed mitochondrial membrane potentials (Bel-7402 cells [4]; 10f 1.5 μM): 33.44%
cells with collapsed mitochondrial membrane potentials (Bel-7402 cells [4]; 10f 2.0 μM): 47.63%
anti-apoptotic Bcl-2 expression [5]: downregulation
expression of proapoptotic caspase-3, -8, -9, Bax, FAS, and cytochrome c [5]: upregulation
